In US10709709B2, “Substituted carbonucleoside derivatives useful as anticancer agents” (Pfizer Inc., priority 2016, dated 2020) one finds IC50 data, which are given here for 23 molecules.

The target of assay [1] is PRMT5/MEP50 protein complex (Homo sapiens (Human), UniProt O14744). Nature of the assay: PRMT5 biochemical assay (3H-SAM methylation of H4(1-21) peptide, filter plate scintillation). Particulars: 10 nM PRMT5/MEP50 complex, 200 nM H4(1-21) peptide, 1 uM SAM, 25 minute incubation at room temperature. A digest of the protocol: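 Scintillation read-out: after 25 min at room temperature and a TCA stop, tritiated H4(1-21) product (peptide 200 nM) is caught on a filter plate. Reaction holds 10 nM PRMT5/MEP50 and 1 uM 3H-labelled plus cold SAM in 50 mM Tris pH 8.5 with MgCl2, EDTA and TCEP. IC50 values come from a 4-parameter dose-response fit.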
Sequence of PRMT5/MEP50 protein complex (O14744 other isoform, or with tags, fused parts or gaps): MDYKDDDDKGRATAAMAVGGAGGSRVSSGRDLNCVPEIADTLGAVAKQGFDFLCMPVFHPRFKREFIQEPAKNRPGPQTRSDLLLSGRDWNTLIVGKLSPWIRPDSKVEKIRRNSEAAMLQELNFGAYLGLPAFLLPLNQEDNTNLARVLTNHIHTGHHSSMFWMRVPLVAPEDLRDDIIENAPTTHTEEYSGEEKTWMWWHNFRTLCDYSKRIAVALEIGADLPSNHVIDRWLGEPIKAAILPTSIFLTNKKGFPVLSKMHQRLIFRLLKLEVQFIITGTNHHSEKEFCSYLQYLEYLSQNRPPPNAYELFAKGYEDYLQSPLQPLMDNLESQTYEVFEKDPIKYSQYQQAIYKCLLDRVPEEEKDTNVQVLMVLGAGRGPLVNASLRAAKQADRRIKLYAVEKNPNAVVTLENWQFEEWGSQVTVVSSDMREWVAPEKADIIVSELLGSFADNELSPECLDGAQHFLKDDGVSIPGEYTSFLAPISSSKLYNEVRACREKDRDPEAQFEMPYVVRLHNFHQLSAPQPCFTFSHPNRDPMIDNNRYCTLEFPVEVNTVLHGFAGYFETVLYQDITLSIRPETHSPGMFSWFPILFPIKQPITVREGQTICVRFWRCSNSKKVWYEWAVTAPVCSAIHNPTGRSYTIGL
Sequence of PRMT5/MEP50 protein complex (Q9BQA1 whole entry partner): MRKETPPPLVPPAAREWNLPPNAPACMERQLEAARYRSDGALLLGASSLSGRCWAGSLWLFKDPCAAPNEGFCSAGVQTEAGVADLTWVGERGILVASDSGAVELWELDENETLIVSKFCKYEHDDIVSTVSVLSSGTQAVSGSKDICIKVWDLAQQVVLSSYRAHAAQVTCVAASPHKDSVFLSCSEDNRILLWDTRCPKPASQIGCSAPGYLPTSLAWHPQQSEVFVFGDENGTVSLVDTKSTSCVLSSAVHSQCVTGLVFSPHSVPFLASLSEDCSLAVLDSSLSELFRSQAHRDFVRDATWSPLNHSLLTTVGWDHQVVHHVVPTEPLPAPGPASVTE

The test system of assay [2] is A549 lung adenocarcinoma cells. Nature of the assay: A549 proliferation assay (Cell Titer Glo). Format: cell-based. The conditions noted are these: Homo sapiens, 7 days with compound, cell viability by Cell Titer Glo (ATP). The method, then:
A549 lung adenocarcinoma cells (American Type Culture Collection) were maintained in DMEM growth media (Life Technologies) supplemented with 10% v/v heat inactivated fetal bovine serum (Sigma) and cultured at 37° C., 5% CO2. Exponentially growing A549 cells were plated in 96-well black tissue culture treated plates (Corning) at a density of […] in a volume of 100 μl culture media and allowed to adhere overnight at 37° C., 5% CO2. The following day, compound plates were prepared by making nine-point 3.3-fold dilutions in DMSO with a top concentration of 10 mM. Compounds were further diluted in culture media and 11 μl was added to the cells (final top assay concentration was 10 μM and DMSO was 0.2%). Cells were incubated with compound at 37° C., 5% CO2 for 7 days with media and compound replacement on day 4. Cell viability was assayed on Day 7 by adding 100 μl Cell Titer Glo (Promega) reagent to the plate to measure the amount of ATP present in the cells. Luminescence was read using the Envision 2104 Multilabel Reader (Perkin Elmer). The 50% inhibitory concentration (IC50) was determined using a 4-parameter fit model normalized to the DMSO control in dose response.

Usually pIC50 stands for the IC50 on a negative log10 scale, so that one unit is a factor of ten.

pIC50: −log10 of the molar value.

For the molecule `Cc1ncc2c(F)cn([C@@H]3C[C@H](Oc4ccc(F)c5c4CNCC5)[C@@H](O)[C@H]3O)c2n1` [Example 132, (1S,2S,3S,5R)-3-((5-fluoro-1,2,3,4-tetrahydroisoquinolin-8-yl)oxy)-5-(5-fluoro-2-methyl-7H-pyrrolo[2,3-d]pyrimidin-7-yl)cyclopentane-1,2-diol], the pIC50 in assay [1] is 8.70; in assay [2] (A549, 168 h) it was 5.56.

Turning to `Cc1ncnc2c1ccn2[C@@H]1C[C@H](Oc2ccc(F)c3c2C(C)NCC3)[C@@H](O)[C@H]1O` (single isomer, unassigned) [Example 213], the pIC50 was 9.00 in assay [1] and 5.92 in assay [2] (A549, 168 h).

Consider `Cc1cc2c(c(O[C@H]3C[C@@H](n4ccc5c(C)ncnc54)[C@H](O)[C@@H]3O)n1)CNCC2` [Example 181, (1S,2S,3S,5R)-3-((3-methyl-5,6,7,8-tetrahydro-2,7-naphthyridin-1-yl)oxy)-5-(4-methyl-7H-pyrrolo[2,3-d]pyrimidin-7-yl)cyclopentane-1,2-diol], for which the pIC50 was 9.00 in assay [1] and 5.94 in assay [2] (A549, 168 h).

Take `Nc1ncnc2c1ccn2[C@@H]1C[C@H](Oc2ccc(F)c3c2CNCC3)[C@@H](O)[C@H]1O` [Example 180, (1S,2S,3R,5S)-3-(4-amino-7H-pyrrolo[2,3-d]pyrimidin-7-yl)-5-((5-fluoro-1,2,3,4-tetrahydroisoquinolin-8-yl)oxy)cyclopentane-1,2-diol]: the pIC50 in assay [1] is 8.52; in assay [2] (A549, 168 h), 6.80.

Regarding `Cc1nc(N)nc2c1ccn2[C@@H]1C[C@H]([C@H](O)c2ccc(F)c(F)c2)[C@@H](O)[C@H]1O` [Example 48, (1R,2S,3R,5R)-3-(2-amino-4-methyl-7H-pyrrolo[2,3-d]pyrimidin-7-yl)-5-[(S)-(3,4-difluorophenyl)(hydroxy)methyl]cyclopentane-1,2-diol], the pIC50 in assay [1] was 8.30; in assay [2] (A549, 168 h), 6.72.

Regarding `Cc1ncnc2c1ccn2[C@@H]1C[C@H](Oc2cc(-c3cnoc3)cc3c2CNCC3)[C@@H](O)[C@H]1O` [Example 197, (1S,2S,3S,5R)-3-((6-(isoxazol-4-yl)-1,2,3,4-tetrahydroisoquinolin-8-yl)oxy)-5-(4-methyl-7H-pyrrolo[2,3-d]pyrimidin-7-yl)cyclopentane-1,2-diol], the negative logarithm of the IC50 (pIC50) is 9.00 in assay [1] and 5.46 in assay [2] (A549, 168 h).

Take `Cc1ncnc2c1ccn2[C@@H]1C[C@H](Oc2nc(C(F)F)cc3c2CNCC3)[C@@H](O)[C@H]1O` [Example 194, (1S,2S,3S,5R)-3-((3-(difluoromethyl)-5,6,7,8-tetrahydro-2,7-naphthyridin-1-yl)oxy)-5-(4-methyl-7H-pyrrolo[2,3-d]pyrimidin-7-yl)cyclopentane-1,2-diol]: the pIC50 is 9.00 in assay [1] and 6.95 in assay [2] (A549, 168 h).

As for `Cc1ncnc2c1ccn2[C@@H]1C[C@H](Oc2cccc3c2CNCC3)[C@@H](O)[C@H]1O` [Example 78, (1S,2S,3R,5S)-3-(4-methyl-7H-pyrrolo[2,3-d]pyrimidin-7-yl)-5-((1,2,3,4-tetrahydroisoquinolin-8-yl)oxy)cyclopentane-1,2-diol], the pIC50 is 9.00 in assay [1] and 5.79 in assay [2] (A549, 168 h).

`Cc1cc2c(c(O[C@H]3C[C@@H](n4cc(Br)c5c(N)ncnc54)[C@H](O)[C@@H]3O)c1)CNCC2` [Example 123, (1S,2S,3R,5S)-3-(4-amino-5-bromo-7H-pyrrolo[2,3-d]pyrimidin-7-yl)-5-((6-methyl-1,2,3,4-tetrahydroisoquinolin-8-yl)oxy)cyclopentane-1,2-diol]: the pIC50 in assay [1] was 8.70; in assay [2] (A549, 168 h), 6.34.

In the case of `Cc1cc2c(c(O[C@H]3C[C@@H](n4cc(Cl)c5c(N)ncnc54)[C@H](O)[C@@H]3O)c1)CNCC2` [Example 129, (1S,2S,3R,5S)-3-(4-amino-5-chloro-7H-pyrrolo[2,3-d]pyrimidin-7-yl)-5-((6-methyl-1,2,3,4-tetrahydroisoquinolin-8-yl)oxy)cyclopentane-1,2-diol], the pIC50 in assay [1] is 9.00; in assay [2] (A549, 168 h) it was 5.98.

Turning to `Nc1ncnc2c1c(F)cn2[C@@H]1C[C@H](Oc2cc(C(F)F)cc3c2CNCC3)[C@@H](O)[C@H]1O` [Example 195, (1S,2S,3R,5S)-3-(4-amino-5-fluoro-7H-pyrrolo[2,3-d]pyrimidin-7-yl)-5-((6-(difluoromethyl)-1,2,3,4-tetrahydroisoquinolin-8-yl)oxy)cyclopentane-1,2-diol], the pIC50 in assay [1] was 9.00; in assay [2] (A549, 168 h), 7.66.

`Cc1ncnc2c1ccn2[C@@H]1C[C@H](Oc2ccc(Cl)c(F)c2CN)[C@@H](O)[C@H]1O` [Example 143, (1S,2S,3S,5R)-3-(2-(aminomethyl)-4-chloro-3-fluorophenoxy)-5-(4-methyl-7H-pyrrolo[2,3-d]pyrimidin-7-yl)cyclopentane-1,2-diol]: the pIC50 is 8.22 in assay [1] and 5.85 in assay [2] (A549, 168 h).

As for `Cc1ncnc2c1ccn2[C@@H]1C[C@H](Oc2cc(Cl)c(F)cc2[C@@H](C)N)[C@@H](O)[C@H]1O` [Example 140, (1S,2S,3S,5R)-3-(2-((R)-1-aminoethyl)-5-chloro-4-fluorophenoxy)-5-(4-methyl-7H-pyrrolo[2,3-d]pyrimidin-7-yl)cyclopentane-1,2-diol], the pIC50 in assay [1] is 7.77; in assay [2] (A549, 168 h) it was 5.62.

For the molecule `Cc1cc2c(c(O[C@H]3C[C@@H](n4ccc5c(C)ncnc54)[C@H](O)[C@@H]3O)c1)CNCC2` [Example 88, (1S,2S,3R,5S)-3-(4-methyl-7H-pyrrolo[2;3-d]pyrimidin-7-yl)-5-[(6-methyl-1,2,3,4-tetrahydroisoquinolin-8-yl)oxy]cyclopentane-1,2-diol], the pIC50 in assay [1] is 9.00; in assay [2] (A549, 168 h), 6.26.

`Cc1ncnc2c1ccn2[C@@H]1C[C@H](Oc2ccc(F)c3c2CNCC3)[C@@H](O)[C@H]1O` [Example 84, (1S,2S,3S,5R)-3-((5-fluoro-1,2,3,4-tetrahydroisoquinolin-8-yl)oxy)-5-(4-methyl-7H-pyrrolo[2,3-d]pyrimidin-7-yl)cyclopentane-1,2-diol]: the pIC50 in assay [1] is 8.70; in assay [2] (A549, 168 h), 6.30.

In the case of `Cc1ncnc2c1ccn2[C@@H]1C[C@H](Cc2ccc(Cl)cc2CN)[C@@H](O)[C@H]1O` [Example 55, (1S,2R,3S,5R)-3-(2-(aminomethyl)-4-chlorobenzyl)-5-(4-methyl-7H-pyrrolo[2,3-d]pyrimidin-7-yl)cyclopentane-1,2-diol], the pIC50 in assay [1] was 8.70; in assay [2] (A549, 168 h), 5.50.

For the molecule `Cc1ncnc2c1ccn2[C@@H]1C[C@H](Oc2ccc(F)cc2[C@H](C)N)[C@@H](O)[C@H]1O` [Example 138, (1S,2S,3S,5R)-3-(2-((S)-1-aminoethyl)-4-fluorophenoxy)-5-(4-methyl-7H-pyrrolo[2,3-d]pyrimidin-7-yl)cyclopentane-1,2-diol], the pIC50 in assay [1] was 8.70; in assay [2] (A549, 168 h), 5.83.

Regarding `Cc1ncnc2c1c(F)cn2[C@@H]1C[C@H](Oc2cccc3c2CNCC3)[C@@H](O)[C@H]1O` [Example 117, (1S,2S,3R,5S)-3-(5-fluoro-4-methyl-7H-pyrrolo[2,3-d]pyrimidin-7-yl)-5-((1,2,3,4-tetrahydroisoquinolin-8-yl)oxy)cyclopentane-1,2-diol], the pIC50 is 8.30 in assay [1] and 5.15 in assay [2] (A549, 168 h).

Regarding `Cc1ncnc2c1ccn2[C@@H]1C[C@H](Oc2ccc(F)cc2CN)[C@@H](O)[C@H]1O` [Example 66, (1S,2S,3S,5R)-3-(2-(aminomethyl)-4-fluorophenoxy)-5-(4-methyl-7H-pyrrolo[2,3-d]pyrimidin-7-yl)cyclopentane-1,2-diol], the pIC50 was 8.40 in assay [1] and 5.17 in assay [2] (A549, 168 h).

As to `Cc1ncnc2c1ccn2[C@@H]1C[C@H](Oc2ccc(Cl)cc2CCN)[C@@H](O)[C@H]1O` [Example 146, (1S,2S,3S,5R)-3-(2-(2-aminoethyl)-4-chlorophenoxy)-5-(4-methyl-7H-pyrrolo[2,3-d]pyrimidin-7-yl)cyclopentane-1,2-diol], the pIC50 was 7.57 in assay [1] and 5.15 in assay [2] (168 h).

Take `Nc1ncnc2c1c(Cl)cn2[C@@H]1C[C@H](Oc2cc(F)c(F)c3c2CNCC3)[C@@H](O)[C@H]1O` [Example 128, (1S,2S,3R,5S)-3-(4-amino-5-chloro-7H-pyrrolo[2,3-d]pyrimidin-7-yl)-5-((5,6-difluoro-1,2,3,4-tetrahydroisoquinolin-8-yl)oxy)cyclopentane-1,2-diol]: the pIC50 is 9.00 in assay [1] and 6.22 in assay [2] (A549, 168 h).

For the molecule `Cc1ncnc2c1ccn2[C@@H]1C[C@H]([C@H](O)c2ccc(Cl)cc2)[C@@H](O)[C@H]1O` [Example 11, (1S,2R,3R,5R)-3-[(S)-(4-chlorophenyl)(hydroxy)methyl]-5-(4-methyl-7H-pyrrolo[2,3-d]pyrimidin-7-yl)cyclopentane-1,2-diol], the pIC50 in assay [1] is 7.70; in assay [2] (168 h), 5.86.

As for `Cc1ncnc2c1ccn2[C@@H]1C[C@H](Oc2cccc3c2CC(N)CO3)[C@@H](O)[C@H]1O` (single isomer, unassigned) [Example 188], the pIC50 was 8.40 in assay [1] and 5.19 in assay [2] (A549, 168 h).
